{"source": "patent US8680139B2", "about": "(Progenra, priority 2009, dated 2014)", "key": {"[1]": {"test": "HCT-116 Cellular Cytotoxicity Assay", "conditions": "human, HCT-116 cells, pH 7.2", "procedure": "The purpose of this assay is to determine if any of the synthesized compounds are cytotoxic against HCT-116 cells, as measured by resazurin metabolism. Resazurin is metabolized only by living cells from a non-fluorescent molecule into Resorufin, a highly red fluorescent dye. […] The cells were cultured in an incubator at 37° C. in 5% CO2 and 95% humidified air. […] The final concentration DMSO was 0.5% (v/v) in all samples. The plates were returned to the incubator for 72 hours. Following 72 hours of test compound exposure, 10 μL of 0.2 mg/mL Resazurin (Sigma) in phosphate buffered saline was added to each well and the plate was returned to the incubator for 3-6 hours. Since living cells metabolize Resazurin, the fluorescence of the reduction product of Resazurin was measured using a microplate fluorometer with λex=531 nm and λem=590 nm filters. Resazurin dye in medium without cells was used to determine the background, which was subtracted from the data for all experimental wells."}, "[2]": {"biological_target": "T1, USP7 (Homo sapiens, UniProt Q93009)", "T1 construct": "full length human USP7 protein; made in house", "T1 sequence (Q93009 whole entry)": "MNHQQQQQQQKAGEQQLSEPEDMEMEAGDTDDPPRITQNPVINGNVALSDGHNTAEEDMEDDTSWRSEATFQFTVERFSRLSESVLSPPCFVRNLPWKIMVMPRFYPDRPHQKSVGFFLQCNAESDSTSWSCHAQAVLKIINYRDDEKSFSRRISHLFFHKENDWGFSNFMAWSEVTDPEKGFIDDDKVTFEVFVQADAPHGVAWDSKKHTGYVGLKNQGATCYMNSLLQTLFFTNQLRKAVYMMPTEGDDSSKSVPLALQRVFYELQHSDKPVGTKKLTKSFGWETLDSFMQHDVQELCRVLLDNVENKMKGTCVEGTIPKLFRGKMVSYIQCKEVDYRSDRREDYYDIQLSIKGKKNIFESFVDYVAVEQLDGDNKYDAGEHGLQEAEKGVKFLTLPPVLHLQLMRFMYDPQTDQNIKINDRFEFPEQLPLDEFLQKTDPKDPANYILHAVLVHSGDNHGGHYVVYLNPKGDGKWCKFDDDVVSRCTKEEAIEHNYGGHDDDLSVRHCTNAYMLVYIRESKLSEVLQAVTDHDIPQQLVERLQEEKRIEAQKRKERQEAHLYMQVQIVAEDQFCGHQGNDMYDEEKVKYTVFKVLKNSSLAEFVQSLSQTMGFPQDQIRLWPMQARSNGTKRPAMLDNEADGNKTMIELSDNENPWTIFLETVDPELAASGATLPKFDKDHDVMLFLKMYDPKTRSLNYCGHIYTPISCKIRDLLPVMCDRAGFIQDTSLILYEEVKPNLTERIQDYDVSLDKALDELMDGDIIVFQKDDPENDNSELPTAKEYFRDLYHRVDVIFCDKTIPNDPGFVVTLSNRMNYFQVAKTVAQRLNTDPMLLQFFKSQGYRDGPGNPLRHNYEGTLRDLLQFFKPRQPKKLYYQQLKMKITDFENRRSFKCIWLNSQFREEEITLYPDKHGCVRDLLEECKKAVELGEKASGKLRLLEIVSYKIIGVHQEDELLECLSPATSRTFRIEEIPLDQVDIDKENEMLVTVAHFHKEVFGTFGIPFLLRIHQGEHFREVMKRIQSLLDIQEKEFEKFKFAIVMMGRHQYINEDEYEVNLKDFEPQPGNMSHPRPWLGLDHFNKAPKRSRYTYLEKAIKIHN", "test": "USP7, Ub-PLA2 assay", "assay_type": "biochemical", "conditions": "Ub-PLA2 / NBD C6-HPC fluorescence, 30 minute preincubation; read-out: EC50 for inhibition of USP7", "method_in_brief": "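Compounds tested against USP7 with DMSO vehicle control and NEM-treated wells as background. Fluorescence (RFU) read-out; % inhibition normalized per plate to mean DMSO and NEM controls.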"}, "[3]": {"test_system": "HCT-116 cells", "test": "HCT-116 Combination Cytotoxicity Assay", "assay_type": "cell-based, human", "conditions": "constant ratio, 72 hours"}}, "data": [{"smiles": "CN(C)CCC(O)c1cc([N+](=O)[O-])c(Sc2ccc(Cl)cc2Cl)s1", "note": "(stereo not shown) [Example 25, 1-[5-(2,4-dichlorophenyl)sulfanyl-4-nitro-2-thienyl]-3-dimethylamino-propan-1-ol]", "values": [{"measurement": "EC50 at 72 h", "setting": "[1]", "value": 15.2, "unit": "µM"}, {"measurement": "EC50", "setting": "[2]", "value": "1 to 10", "unit": "µM"}]}, {"smiles": "O=C(Nc1cccc2cnccc12)c1cc([N+](=O)[O-])c(Sc2c(Cl)cncc2Cl)s1", "note": "[Example 179, 5-((3,5-dichloropyridin-4-yl)thio)-N-(isoquinolin-5-yl)-4-nitrothiophene-2-carboxamide]", "values": [{"measurement": "EC50 at 72 h", "setting": "[1]", "value": 4.23, "unit": "µM"}, {"measurement": "EC50", "setting": "[2]", "value": "≤ 1", "unit": "µM"}]}, {"smiles": "CN1C(C)(C)CC(NC(=O)c2cc([N+](=O)[O-])c(Sc3c(Cl)cncc3Cl)s2)CC1(C)C", "note": "[Example 188, 5-((3,5-dichloropyridin-4-yl)thio)-4-nitro-N-(1,2,2,6,6-pentamethylpiperidin-4-yl)thiophene-2-carboxamide]", "values": [{"measurement": "EC50 at 72 h", "setting": "[1]", "value": 7.9, "unit": "µM"}, {"measurement": "EC50", "setting": "[2]", "value": "≤ 1", "unit": "µM"}]}, {"smiles": "CN(C)CCNc1ccc(NC(=O)c2cc([N+](=O)[O-])c(Sc3c(Cl)cncc3Cl)s2)cn1", "note": "[Example 238, 5-((3,5-dichloropyridin-4-yl)thio)-N-(6-((2-(dimethylamino)ethyl)amino)pyridin-3-yl)-4-nitrothiophene-2-carboxamide]", "values": [{"measurement": "EC50 at 72 h", "setting": "[1]", "value": 3.96, "unit": "µM"}, {"measurement": "EC50", "setting": "[2]", "value": "≤ 1", "unit": "µM"}]}, {"smiles": "O=C(Nc1ccon1)c1cc([N+](=O)[O-])c(Sc2c(Cl)cncc2Cl)s1", "note": "[Example 171, 5-((3,5-dichloropyridin-4-yl)thio)-N-(isoxazol-3-yl)-4-nitrothiophene-2-carboxamide]", "values": [{"measurement": "EC50 at 72 h", "setting": "[1]", "value": 10.9, "unit": "µM"}, {"measurement": "EC50", "setting": "[2]", "value": "≤ 1", "unit": "µM"}]}, {"smiles": "O=C(Nc1ccc(N2CCOCC2)cc1)c1cc([N+](=O)[O-])c(Sc2c(Cl)cncc2Cl)s1", "note": "[Example 157, 5-((3,5-dichloropyridin-4-yl)thio)-N-(4-morpholinophenyl)-4-nitrothiophene-2-carboxamide]", "values": [{"measurement": "EC50 at 72 h", "setting": "[1]", "value": 27.3, "unit": "µM"}, {"measurement": "EC50", "setting": "[2]", "value": "≤ 1", "unit": "µM"}]}, {"smiles": "CN1CCC(NC(=O)c2cc([N+](=O)[O-])c(Sc3c(Cl)cncc3Cl)s2)CC1", "note": "[Example 168, 5-((3,5-dichloropyridin-4-yl)thio)-N-(1-methylpiperidin-4-yl)-4-nitrothiophene-2-carboxamide]", "values": [{"measurement": "CI (mean ± SD) ED75", "setting": "[3]; combination with Chlormethine", "value": "0.70 ± 0.10"}, {"measurement": "CI (mean ± SD) ED90", "setting": "[3]; combination with Chlormethine", "value": "0.78 ± 0.13"}, {"measurement": "CI (mean ± SD) ED75", "setting": "[3]; combination with Doxorubicin", "value": "0.73 ± 0.09"}, {"measurement": "CI (mean ± SD) ED90", "setting": "[3]; combination with Doxorubicin", "value": "0.81 ± 0.11"}, {"measurement": "CI (mean ± SD) ED75", "setting": "[3]; combination with Etoposide", "value": "0.54 ± 0.10"}, {"measurement": "CI (mean ± SD) ED90", "setting": "[3]; combination with Etoposide", "value": "0.59 ± 0.14"}, {"measurement": "EC50 at 72 h", "setting": "[1]", "value": 6.52, "unit": "µM"}, {"measurement": "EC50", "setting": "[2]", "value": "≤ 1", "unit": "µM"}]}, {"smiles": "CC(=O)c1cc([N+](=O)[O-])c(Sc2ccc(Cl)cc2Cl)s1", "note": "[Example 2, 1-[5-(2,4-Dichlorophenylsulfanyl)-4-nitro-2-thienyl]ethanone]", "values": [{"measurement": "EC50 at 72 h", "setting": "[1]", "value": 16.1, "unit": "µM"}, {"measurement": "EC50", "setting": "[2]", "value": "1 to 10", "unit": "µM"}]}, {"smiles": "COc1cc(NC(=O)c2cc(C#N)c(Sc3c(Cl)cncc3Cl)s2)ccc1OCCCN(C)C", "note": "[Example 205, 4-cyano-5-((3,5-dichloropyridin-4-yl)thio)-N-(4-(3-(dimethylamino)propoxy)-3-methoxyphenyl)thiophene-2-carboxamide]", "values": [{"measurement": "EC50 at 72 h", "setting": "[1]", "value": 3.1, "unit": "µM"}, {"measurement": "EC50", "setting": "[2]", "value": "≤ 1", "unit": "µM"}]}, {"smiles": "CC(=O)c1cc(C#N)c(Sc2ccc(Cl)cc2Cl)s1", "note": "[Example 21, 1-[4-cyano-5-(2,4-dichlorophenyl)sulfanyl-2-thienyl]ethanone]", "values": [{"measurement": "EC50 at 72 h", "setting": "[1]", "value": 32.5, "unit": "µM"}, {"measurement": "EC50", "setting": "[2]", "value": "> 10", "unit": "µM"}]}, {"smiles": "CN(C)CCOc1ccc(NC(=O)c2cc([N+](=O)[O-])c(Sc3c(Cl)cncc3Cl)s2)cc1", "note": "[Example 192, 5-((3,5-dichloropyridin-4-yl)thio)-N-(4-(2-(dimethylamino)ethoxy)phenyl)-4-nitrothiophene-2-carboxamide]", "values": [{"measurement": "EC50 at 72 h", "setting": "[1]", "value": 4.9, "unit": "µM"}, {"measurement": "EC50", "setting": "[2]", "value": "≤ 1", "unit": "µM"}]}, {"smiles": "CC(=O)c1cc([N+](=O)[O-])c(Oc2ccc(Cl)cc2Cl)s1", "note": "[Example 271, 1-(5-(2,4-dichlorophenoxy)-4-nitrothiophen-2-yl)ethanone]", "values": [{"measurement": "EC50 at 72 h", "setting": "[1]", "value": 8.54, "unit": "µM"}, {"measurement": "EC50", "setting": "[2]", "value": "1 to 10", "unit": "µM"}]}, {"smiles": "O=C(Nc1ccc2ncccc2c1)c1cc([N+](=O)[O-])c(Sc2c(Cl)cncc2Cl)s1", "note": "[Example 180, 5-((3,5-dichloropyridin-4-yl)thio)-4-nitro-N-(quinolin-6-yl)thiophene-2-carboxamide]", "values": [{"measurement": "EC50 at 72 h", "setting": "[1]", "value": 7.62, "unit": "µM"}, {"measurement": "EC50", "setting": "[2]", "value": "≤ 1", "unit": "µM"}]}, {"smiles": "Cc1cc(NC(=O)c2cc([N+](=O)[O-])c(Sc3c(Cl)cncc3Cl)s2)n(CCN(C)C)n1", "note": "[Example 182, 5-((3,5-dichloropyridin-4-yl)thio)-N-(1-(2-(dimethylamino)ethyl)-3-methyl-1H-pyrazol-5-yl)-4-nitrothiophene-2-carboxamide]", "values": [{"measurement": "EC50 at 72 h", "setting": "[1]", "value": 14.3, "unit": "µM"}, {"measurement": "EC50", "setting": "[2]", "value": "≤ 1", "unit": "µM"}]}]}
